The inhibition is how much of the control response was suppressed.

Structures are written as SMILES. “Also recorded” adds a separate entry of the source. Like-named read-outs stand apart in the source and are kept apart here.

This note sets out measurements from US10363251B2, “(+)-morphinans as antagonists of toll-like receptor 9 and therapeutic uses thereof” (Mallinckrodt LLC, priority 2009, dated 2019).

The test system of data set [1] is chronic constriction injury (CCI) neuropathic pain model. The experiment in a line: Mechanical allodynia (Von Frey) in chronic constriction injury (Bennett) model, Example 3. The data set is classed as in vivo, rat. Particulars: Day 14 post-surgery, 30 and 90 min post-dosing, vs vehicle. The text has this:
Neuropathic pain affects approximately 1% of the U.S. population and is extremely difficult to manage. Usually the pain is chronic, severe, and fails to respond to traditional analgesic drugs. Fortunately, one of the most widely used animal models for neuropathic pain closely mimics the pain endured by patients. In this model, termed the chronic constriction injury (CCI) or Bennett model, four closely spaced ligatures tied loosely around the sciatic nerve of a rat cause demyelination of the nerve, resulting in spontaneous pain, such as prolonged paw elevation and licking of the ligated paw. Induced pain in the nerve-injured limb can be measured using Von Frey filaments, applied to the plantar surface of the paw to test for responses to non-noxious tactile stimulation. The onset of this heightened mechanical allodynia is quite rapid and it persists for 2-3 months.
In this example, the CCI ligation was performed on the left sciatic nerve in three groups of rats. Von Frey testing of mechanical allodynia was performed on both paws on Day 14 to determine the analgesic efficacy of the test agent. The testing was performed pre-dosing, and at 30 and 90 minutes post-dosing.
The animals were allocated to treatment groups based on their baseline Von Frey data, measured prior to surgery. The mechanical allodynia scores for each group were reviewed to ensure that the mean values and standard deviation satisfied the assumption of homogeneity. Thirty-one (31) animals were used on the study. Thirty (30) animals were initially allocated to treatment groups, and the remaining […] animals were held as spares. One spare was then used to replace an animal that died during surgery. Body weights were taken one day after arrival, prior to surgery and weekly thereafter. On Day 14, after the final behavioral testing, the animals were euthanized by carbon dioxide asphyxiation. No necropsy was performed nor tissues collected.
All surgeries were performed under aseptic conditions. Prior to surgery, the rats were sedated using inhaled Isoflurane anesthetic. The left leg was shaved and prepped. The common sciatic nerve was exposed and freed from adherent tissue at mid-thigh by separating the muscle (biceps femoris) by blunt dissection. Proximal to the sciatic nerve's trifurcation; approximately 7 mm of nerve was freed from the adhering tissue. Four ligatures, approximately 1 mm apart, were tied loosely around the nerve using 6.0 chromic catgut. Each of the sutures was tied loosely with a square knot around the sciatic nerve. A brief twitch in the muscle surrounding the exposure was an indicator of the desired degree of constriction. The site was then closed using the appropriate suture material. Post-operative care and observations were carried out until the animal recovered consciousness.
The animals underwent a series of behavioral testing for neuropathic pain assessment. A Von Frey test of mechanical allodynia was performed on both hind paws prior to surgery to achieve a baseline measurement for randomization and then following surgery on Day 14 (test article efficacy) according to Table 4.
Twice prior to surgery, the animals were acclimated to the allodynia apparatus. This habituated the rats to the testing devices to familiarize them with the apparatus so they were calm at the time of testing. […] Animals were first habituated to the testing chamber so that they were calm enough for their pain threshold to be assessed. […]

Data set [2] has the same test system. The data set is described as follows: Reversal of allodynia (von Frey) in CCI rats, 4 days of dosing, Example 4. It is filed as in vivo, rat. Particulars: for Animals sleepier/sedated on at least one post dosing occasion / Local observations (swelling, irritation): i.p.; for Reversal of allodynia (von Frey): i.p. once a day for 4 days from day 14, tested 3 hrs after dosing, ultra low to high dose; for Reversal of allodynia (von Frey) / Area under the curve (AUC) analysis of allodynia: vs saline; for Area under the curve (AUC) analysis of allodynia: i.p. once a day for 4 days. As for the experimental part:
Allodynia was induced in a group of (male, Sprague-Dawley) rats essentially as described above in Example 3. Prior to surgery, animals were tested to establish their baseline von Frey scores. Any animal with a Log absolute von Frey score lower than 4.65 on either leg was excluded from the study. CCI surgery was performed on the left sciatic nerve as detailed above. On days 4 and 14 post-surgery, the animals were tested using the von Frey test of mechanical allodynia to ensure that allodynia was established.
Beginning at about day 14 post-surgery, the animals were dosed once a day for 4 days. Compounds II-25, II-93, II-62, and III-2 were tested. All drugs were administered intraperitoneally (i.p.). Allodynia was tested prior to and again 3 hrs after each dosing. Drug administration and testing was done blindly. After the 4th day of dosing, the animals were sacrificed, cardiac perfusion was performed, and spinal cords were removed and stored for further analysis.
All data were analyzed using 2-way ANOVA's with Bonferroni's post hoc test compared to saline unless otherwise stated. Area under curve (AUC) was calculated using Graphpad Prism and comparisons were made using 1-way ANOVA with Dunnet's post hoc test.

For data set [3], the target named is T1, TLR9 (Homo sapiens, UniProt Q9NR96).
T1 construct: expressed in transfected cells; host or cells: HEK293
T1 sequence (Q9NR96 26-1032): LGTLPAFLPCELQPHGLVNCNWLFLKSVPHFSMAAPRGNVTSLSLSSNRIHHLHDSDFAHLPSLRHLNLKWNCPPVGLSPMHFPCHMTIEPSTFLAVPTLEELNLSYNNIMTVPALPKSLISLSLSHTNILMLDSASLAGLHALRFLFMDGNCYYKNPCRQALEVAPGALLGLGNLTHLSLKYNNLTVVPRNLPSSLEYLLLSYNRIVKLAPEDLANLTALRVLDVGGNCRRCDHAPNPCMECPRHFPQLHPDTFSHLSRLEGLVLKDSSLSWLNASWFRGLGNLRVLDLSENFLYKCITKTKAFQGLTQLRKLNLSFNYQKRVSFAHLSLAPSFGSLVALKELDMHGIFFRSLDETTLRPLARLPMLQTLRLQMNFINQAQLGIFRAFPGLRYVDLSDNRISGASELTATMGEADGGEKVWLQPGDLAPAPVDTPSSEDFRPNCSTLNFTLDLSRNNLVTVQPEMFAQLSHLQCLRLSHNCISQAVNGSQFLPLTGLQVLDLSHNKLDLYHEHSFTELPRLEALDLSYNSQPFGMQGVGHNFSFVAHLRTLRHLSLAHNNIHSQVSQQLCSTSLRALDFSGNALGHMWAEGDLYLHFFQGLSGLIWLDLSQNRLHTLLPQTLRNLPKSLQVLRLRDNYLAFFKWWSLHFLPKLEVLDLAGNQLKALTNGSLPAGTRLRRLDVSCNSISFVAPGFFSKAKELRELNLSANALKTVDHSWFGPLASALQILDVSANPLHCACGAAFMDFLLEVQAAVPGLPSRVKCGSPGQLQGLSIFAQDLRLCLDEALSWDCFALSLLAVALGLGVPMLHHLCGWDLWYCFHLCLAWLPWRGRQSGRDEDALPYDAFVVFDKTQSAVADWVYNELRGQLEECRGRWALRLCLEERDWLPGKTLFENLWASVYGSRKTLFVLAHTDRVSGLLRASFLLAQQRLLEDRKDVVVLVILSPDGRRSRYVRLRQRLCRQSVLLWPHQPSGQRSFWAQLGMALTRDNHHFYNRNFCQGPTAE
The experiment in a line: TLR9 screening of (+)-morphinan library, SEAP reporter in HEK293 cells expressing TLR9. It is filed as cell-based. As to conditions: activator ODN2006; for OD 650 nm (mean ± sd): control (no activator) 0.14, activator 1.42 OD. The essentials:
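HEK293 cells expressing TLR9 with an NF-κB-inducible SEAP reporter were preincubated with compound at 10 μM and 100 nM for 30 min at 37 °C, then stimulated with ODN2006. SEAP was read as OD 650 nm after 16-20 h, in triplicate.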

Data set [4] relates to APAP-induced liver toxicity. The experiment in a line: Acetaminophen (APAP)-induced hepatotoxicity model. As to conditions: APAP 500 mg/Kg ip, 12 hours post-APAP; for Protection from APAP-induced toxicity: test doses and timing per Table 6; for Liver histology scores (necrosis and hemorrhage): vs APAP alone. It is filed as in vivo, mouse. As to the method: For this, APAP-induced liver toxicity was induced in male C57BL/6 mice aged between 8-10 weeks by a single intraperitoneal (ip) injection of APAP in PBS at a dose of 500 mg/Kg (Imaeda et al. (2009) J. Clin. Invest. 119(2):305-314). The ability of (+)-morphinans to reduce liver toxicity was tested in the following groups:
The (+)-morphinan (or PBS) was either administered as a single subcutaneous (sc) or ip injection concurrent with the APAP injection or one hour prior to the APAP injection.
The mice were sacrificed 12 hours post-APAP treatment. Liver samples were stained with H&E and analyzed for signs of necrosis and hemorrhage. Histology scores were assigned using the standard rating scale. The levels of serum alanine transaminase (ALT) were also measured in each animal using a standard assay.

Data set [5] concerns Experimental Autoimmune Encephalomyelitis (EAE).
Setting [6] is: HEK293, read-out: % Inhibition (mean), 100 nM.
The mark [7] stands for this setting: HEK293, read-out: % Inhibition (mean), 10 μM.

On to `NCC1(CC(=O)O)CCCCC1` [Gabapentin], for which the “Mechanical allodynia (50% allodynia threshold), left (affected) paw” value in data set [1] ((+)-naloxone.HCl 66.7 mg/kg S.C., Gabapentin 100 mg/kg I.P.) is “effective at significantly reducing the allodynia”. Further, in data set [1], the “Mechanical allodynia (50% allodynia threshold), right (unaffected) paw” value is “higher threshold”.
On to `COc1ccc2c3c1O[C@@H]1[C@H](O)CC[C@@H]4[C@H](C2)N(CC2CC2)CC[C@]341` [II-25], for which, in data set [2] (high dose), the “Animals sleepier/sedated on at least one post dosing occasion” value (“Animals sleepier/sedated” below) is 5-6. In data set [2], the “Reversal of allodynia (von Frey)” value is given as “significant overall effect on the reversal of allodynia bilaterally; also recorded: effective at reversing mechanical allodynia” and the “Area under the curve (AUC) analysis of allodynia” value (“Area under the curve” below) is reported as “significantly reversed allodynia”. For the same compound, the “OD 650 nm (mean ± sd)” value in data set [3] (100 nM) is recorded as 1.33 ± 0.07 OD. The “OD 650 nm (mean ± sd)” value in data set [3] (10 μM) is recorded as 0.21 ± 0.06 OD. Also, in data set [3] (setting [6]), the inhibition at 0.1 µM was 6%. Moreover, in data set [3] (setting [7]), the inhibition at 10 µM amounted to 85%.
In the case of `CN(C(=O)/C=C/c1ccoc1)[C@H]1CC[C@]2(O)[C@@H]3Cc4ccc(O)c5c4[C@]2(CCN3CC2CC2)[C@@H]1O5` [II-62], the “Time course analysis of allodynia, ipsilateral paw” value in data set [2] (Day 4 of dosing) was “slight reversal of allodynia”. In addition, the “Animals sleepier/sedated” value in data set [2] (high dose) is reported as “two”; in data set [2] (low dose), “one”; in data set [2] (medium dose), “one”. For the same compound, the “Local observations (swelling, irritation)” value in data set [2] (high dose) is listed as “appeared to irritate the rats when it was injected; also recorded: swelling around the site of injection”. In addition, the “Reversal of allodynia (von Frey)” value in data set [2] was “did not significantly reverse allodynia at any dose”. Moreover, the “Area under the curve” value in data set [2] is “no overall effect of any dose”. The “OD 650 nm (mean ± sd)” value in data set [3] (100 nM) came out at 1.34 ± 0.05 OD; in data set [3] (10 μM), 0.18 ± 0.01 OD. Also, the inhibition at 0.1 µM in data set [3] (setting [6]) was 6%. Further, the inhibition at 10 µM in data set [3] (setting [7]) was determined as 87%.
Take `C=CCN1CC[C@@]23c4c5ccc(OC)c4OC2C(NCCC)CCC3C1C5` (stereo partly shown) [II-93]: in data set [2] (high dose), the “Animals sleepier/sedated” value is recorded as 7 and the “Local observations (swelling, irritation)” value was “swelling of the ipsilateral paw”. Moreover, in data set [2], the “Reversal of allodynia (von Frey)” value is listed as “significantly reversed allodynia in the ipsilateral paw after the high dose only; also recorded: effective at reversing mechanical allodynia” and the “Area under the curve” value is listed as “significant reversal of allodynia in the ipsilateral paw”. Also, the “Animals sleepier/sedated” value in data set [2] (low dose) is “one”. Further, the “Animals sleepier/sedated” value in data set [2] (medium dose) is recorded as “two”. In addition, in data set [3] (100 nM), the “OD 650 nm (mean ± sd)” value came out at 0.12 ± 0.00 OD. For the same compound, in data set [3] (10 μM), the “OD 650 nm (mean ± sd)” value was determined as 0.11 ± 0.01 OD. Moreover, the inhibition at 0.1 µM in data set [3] (setting [6]) was 91%. Besides, the inhibition at 10 µM in data set [3] (setting [7]) is 92%. Also, in data set [4], the “Protection from APAP-induced toxicity” value was “None of compounds II-24, II-93, or III-2 provided any protection”; the “Liver histology scores (necrosis and hemorrhage)” value was “about the same as those only exposed to APAP”.
On to `COC1=CCC2[C@@H]3Cc4ccc(OC)c5c4[C@]2(CCN3)[C@@H]1O5` (stereo partly shown) [II-98], for which the figures for the “OD 650 nm (mean ± sd)” value in data set [3] (100 nM) and in data set [3] (10 μM) were 1.02 ± 0.02 OD and 0.56 ± 0.03 OD, respectively. In data set [3] (setting [6]), the inhibition at 0.1 µM is 28%. Further, the inhibition at 10 µM in data set [3] (setting [7]) turned out to be 60%. Also, in data set [5] (20 mg/kg bid, subcutaneous), the Acute toxicity entry is reported as “acute toxicity was observed”.
With `C=CCN1CCc2cc(OC)ccc2[C@H]1Cc1ccc(OC)c(O)c1` [III-2], the “Reversal of allodynia (von Frey)” value in data set [2] is “no effect on allodynia at any dose”. Besides, the “Animals sleepier/sedated” value in data set [2] (low dose) is listed as “Two”. Further, in data set [3] (100 nM), the “OD 650 nm (mean ± sd)” value was found to be 1.13 ± 0.02 OD. Further, the “OD 650 nm (mean ± sd)” value in data set [3] (10 μM) came to 0.42 ± 0.04 OD. In data set [3] (HEK293, 100 nM, read-out: % Inhibition (mean)), the inhibition at 0.1 µM worked out at 21%. In data set [3] (HEK293, 10 μM, read-out: % Inhibition (mean)), the inhibition at 10 µM was determined as 71%. Moreover, in data set [4], the “Protection from APAP-induced toxicity” value was “None of compounds II-24, II-93, or III-2 provided any protection”; the “Liver histology scores (necrosis and hemorrhage)” value was “about the same as those only exposed to APAP”.
As to `C[C@]12C=CC(=O)C=C1CC[C@@H]1[C@@H]2[C@@H](O)C[C@@]2(C)[C@H]1CC[C@]2(O)C(=O)CO` [Prednisolone, reference compound], the EAE clinical scores entry in data set [5] (bid for 20 days, Cmpd II-98 5 mg/kg sc, others 20 mg/kg sc, Prednisolone 4.5 mg/kg ip, vs vehicle control) is listed as “significantly reduced EAE clinical scores”.
